The values below come from patent US20120035196A1, “CARBOXYLIC ACID COMPOUND” (priority 2009, published 2012).

Structures are written as SMILES.

One assay addresses T1, human GPR40 (Homo sapiens, UniProt O14842, R211H).
T1 construct: expressed in transfected cells
Kind of assay: Measurement of GPR40 agonistic activity (FLIPR, change in intracellular calcium concentration). The format is cell-based. The conditions noted are these: CHO cell strain expressing human GPR40; changes in fluorescence intensity after 1 minute. The source says: Test Method 1: Measurement of GPR40 Agonistic Activity i) Cloning of Human GPR40
A full-length sequence of GPR40 was obtained by PCR method using human genomic DNA (Clontech) as a template in accordance with the procedure shown below.
An oligonucleotide consisting of the base sequence represented by SEQ ID NO: 1 was used as the forward primer, and an oligonucleotide consisting of the base sequence represented by SEQ ID NO: 2 as the reverse primer. In this connection, a base sequence comprising a XbaI recognition region was added to the respective 5′-termini of the aforementioned forward primer and reverse primer. PCR was carried out in the presence of 5% dimethylsulfoxide (DMSO) using a Taq DNA polymerase (Ex Taq DNA polymerase; Takara Bio), by repeating 30 times of a cycle consisting of 94° C. (15 seconds)/55° C. (30 seconds)/72° C. (1 minute). As a result, a DNA fragment of about 0.9 kbp was amplified. This DNA fragment was digested with XbaI and then inserted into the XbaI site of a plasmid pEF-BOS-dhfr (Nucleic acids Research, 18, 5322, 1990), thereby obtaining a plasmid pEF-BOS-dhfr-GPR40.
The base sequence of the GPR40 gene in the pEF-BOS-dhfr-GPR40 was determined by the dideoxy terminator method using a DNA sequencer (ABI 377 DNA Sequencer, Applied Biosystems). The base sequence of the GPR40 gene was represented by the base sequence SEQ ID NO: 3. […]
ii) Preparation of GPR40 Stable Expression Cell
As the cell for expressing GPR40 protein, a CHO dhfr cell (a dihydrofolate reductase (dhfr) gene-deficient CHO cell) was used. Also, as the plasmid for expressing GPR40 protein, the plasmid pEF-BOS-dhfr-GPR40 obtained in the aforementioned i) was used. The CHO dhfr cell was inoculated into an αMEM medium containing 10% fetal calf serum (FCS) using a 6 well plate (Asahi Techno Glass) and cultured overnight to a confluence of 80 to 90%, and then 2 μg per well of the plasmid pEF-BOS-dhfr-GPR40 was gene-transferred using a transfection reagent (Lipofectamine 2000; Invitrogen). After 24 hours of culturing from the gene transfer, the cells were diluted and inoculated again. […] After 20 days of culturing, the formed colonies of cells were individually recovered and cultured to obtain CHO cells stably expressing GPR40. From these, cells having high reactivity for intrinsic ligands oleic acid and linoleic acid were selected. […]
iii) Measurement of GPR40 Agonistic Activity
The present test was measured by FLIPR (registered trademark, Molecular Devices) using a change in intracellular calcium concentration as the index. Hereinafter, the test method will be shown.
A CHO cell strain in which human GPR40 was expressed was inoculated into a 384 well black plate (Becton Dickinson) at 6×10^3 cells per well portion and cultured overnight in a CO2 incubator.
Using a Calcium-3 assay kit (Molecular Devices), one bottle of the phosphorescent pigment was dissolved in 10 ml of HBSS-HBEPES buffer (pH 7.4, 1×HBSS, 20 mM HEPES, Invitrogen). 35.68 mg of Probenecid (Sigma) was dissolved in 250 μl of 1 M NaOH and adjusted by adding 250 μl of the HBSS-HEPES buffer. A phosphorescent pigment solution was prepared by mixing 16 ml of HBSS-HEPES buffer, 640 μl of the phosphorescent pigment and 32 μl of probenecid per one plate. The medium was discarded from the plate, and the phosphorescent pigment solution was dispensed at 40 μl per well portion and then incubated at room temperature for 2 hours. Each compound to be tested was dissolved in DMSO and then diluted with HBSS-HEPES buffer and dispensed in 10 μl portions into the plate, thereby starting the reaction, and changes in the intracellular calcium concentration were measured by FLIPR. The EC50 value of each compound to be tested was calculated by a dose-response curve of changes in fluorescence intensity after 1 minute of the measurement.

The test system of the next assay is Male ICR mice. Kind of assay: Normal mice single oral glucose tolerance test. The format is in vivo. Conditions: Mus musculus, 0.5 h, orally 10 mg/kg 30 minutes before glucose loading (2 g/kg), 30 minutes after glucose loading, relative to control group, read-out: Blood glucose increase inhibition rate. The protocol: Test Method 3: Normal Mice Single Oral Glucose Tolerance Test
The present test was to examine the blood glucose increase inhibiting action of the test compound after glucose loading, using normal mice. Hereinafter, the test method will be shown.
Male ICR mice (6 weeks of age) after 1 week of acclimatization were subjected to overnight fasting and used as test animals. The test compound was made into a 0.01 M aqueous sodium hydroxide solution and orally administered at a dose of 10 mg/kg 30 minutes before the glucose loading (2 g/kg). A 0.01 M aqueous sodium hydroxide solution was administered to the control group. The blood glucose increase inhibitory ratio (%) after 30 minutes of glucose loading was calculated, relative to the control group.
When the compound of Example 72 described in Pamphlet of International Publication WO2005/087710 was orally administered at 10 mg/kg by the same method as the test method 3 above, the blood glucose increase inhibition rate was measured and found to be 9%, whereas when the compound was orally administered at 30 mg/kg, the blood glucose increase inhibition rate was 20%. […] Further, in the present test, a minimum administration amount showing a blood glucose increase inhibition rate of 20% or more or a minimum administration amount showing a significance (Dunnet multiple comparison test) relative to a control was taken as a minimum effective dose (MED).

T1 sequence (O14842 whole entry R211H): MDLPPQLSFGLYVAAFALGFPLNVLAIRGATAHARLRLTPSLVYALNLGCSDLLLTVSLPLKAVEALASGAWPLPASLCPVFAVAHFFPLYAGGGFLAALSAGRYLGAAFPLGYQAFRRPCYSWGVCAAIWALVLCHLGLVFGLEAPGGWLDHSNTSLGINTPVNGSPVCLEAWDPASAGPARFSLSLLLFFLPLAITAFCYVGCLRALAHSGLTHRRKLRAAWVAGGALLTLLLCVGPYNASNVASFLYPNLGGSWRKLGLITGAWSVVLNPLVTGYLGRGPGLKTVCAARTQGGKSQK

For the compound `Cc1cc(OC[C@@H](O)CO)cc(C)c1-c1cccc(COc2ccc3c(c2)OC2(CC2)C3CC(=O)O)c1C` (single isomer, unassigned) [Example 25-5a], the EC50 (usually the concentration giving half of the maximal effect) on human GPR40 worked out at 350 nM.
`Cc1cc(OC[C@@H](O)CO)cc(C)c1-c1cccc(COc2ccc3c(c2)OC2(CC2)C3CC(=O)O)c1C` (single isomer, unassigned) [Example 25-5b]: the EC50 at human GPR40 turned out to be 260 nM.
Still for that read-out and setting: then `Cc1cc(OCC[C@H](O)CO)cc(C)c1-c1cccc(COc2ccc3c(c2)OC2(CC2)C3CC(=O)O)c1C` (single isomer, unassigned) [Example 25-7a], with 490 nM; and `Cc1cc(OCC[C@H](O)CO)cc(C)c1-c1cccc(COc2ccc3c(c2)OC2(CC2)C3CC(=O)O)c1C` (single isomer, unassigned) [Example 25-7b], with 330 nM.
As for `Cc1cc(OCCO)cc(C)c1-c1cccc(CNc2ccc3c(c2)CC2(CC2)C3CC(=O)O)c1C` (single isomer, unassigned) [Example 25b, [5′-({[4′-(2-hydroxyethoxy)-2,2′,6′-trimethylbiphenyl-3-yl]methyl}amino)-1′,3′-dihydrospiro[cyclopropan-1,2′-inden]-1′-yl]acetic acid], on human GPR40, the concentration giving a half-maximal response (EC50) is 210 nM. Further, in the assay on Male ICR mice, the inhibition in vivo at 10 mg/kg was 33%.
On to `Cc1cc(OCCO)cc(C)c1-c1cccc(COc2ccc3c(c2)-c2ccccc2C3CC(=O)O)c1C` (stereo not drawn) [Example 2, sodium (3-{[4′-(2-hydroxyethoxy)-2,2′,6′-trimethylbiphenyl-3-yl]methoxy}-9H-fluoren-9-yl)acetate], for which, at human GPR40, the EC50 came out at 520 nM. The inhibition in vivo at 10 mg/kg in the assay with Male ICR mice came out at 37%.
As for `Cc1cc(OCCC(C)(C)O)cc(C)c1-c1cccc(CNc2ccc3c(c2)CC2(CC2)C3CC(=O)O)c1C` (stereo not drawn) [Example 2-2], the half-maximal effective concentration (EC50) at human GPR40 is 790 nM. Moreover, the inhibition in vivo at 10 mg/kg in the assay on Male ICR mice came out at 34%.
Take `Cc1cc(OC[C@H](O)CO)cc(C)c1-c1cccc(COc2ccc3c(c2)CC2(CC2)C3CC(=O)O)c1C` (stereo partly drawn) [Example 4, sodium {5′-[(4′-{[(2R)-2,3-dihydroxypropyl]oxy}-2,2′,6′-trimethylbiphenyl-3-yl)methoxy]-1′,3′-dihydrospiro[cyclopropan-1,2′-inden]-1′-yl}acetate]: the EC50 on human GPR40 turned out to be 250 nM. The inhibition in vivo at 10 mg/kg with Male ICR mice was 20%.
As to `Cc1cccc(C)c1-c1cccc(COc2ccc3c(c2)-c2ccccc2C3CC(=O)O)c1C` (stereo not drawn) [Example 6, 0.5 calcium {3-[(2,2′,6′-trimethylbiphenyl-3-yl)methoxy]-9H-fluoren-9-yl}acetate], at human GPR40, the half-maximal effective concentration (EC50) was found to be 780 nM. Moreover, the inhibition in vivo at 10 mg/kg with Male ICR mice came out at 35%.
On the same counts, the results for `Cc1cc(OC[C@H](O)CO)cc(C)c1-c1cccc(COc2ccc3c(c2)-c2ccccc2C3CC(=O)O)c1C` (stereo partly drawn) [Example 8, sodium {3-[(4′-{[(2R)-2,3-dihydroxypropyl]oxy}-2,2′,6′-trimethylbiphenyl-3-yl)methoxy]-9H-fluoren-9-yl}acetate] are 610 nM and 25%.
Regarding `COCCOc1cc(C)c(-c2cccc(CNc3ccc4c(c3)CC3(CC3)C4CC(=O)O)c2C)c(C)c1` (stereo not drawn) [Example 8-3], the concentration for a half-maximal effect (EC50) at human GPR40 turned out to be 610 nM. The inhibition in vivo at 10 mg/kg in the assay on Male ICR mice was determined as 21%.
On the same counts, the results for `Cc1nc(OCCC(C)(C)O)nc(C)c1-c1cccc(COc2ccc3c(c2)CC2(CC2)C3CC(=O)O)c1C` (stereo not drawn) [Example 8-12] are 590 nM and 24%.
In the case of `Cc1cc(OCCO)cc(C)c1-c1cccc(COc2ccc3c(c2)OC2(CC2)C3CC(=O)O)c1C` (stereo not drawn) [Example 20, sodium (6-{[4′-(2-hydroxyethoxy)-2,2′,6′-trimethylbiphenyl-3-yl]methoxy}-3H-spiro[1-benzofuran-2,1′-cyclopropan]-3-yl)acetate], at human GPR40, the EC50 was 490 nM. The inhibition in vivo at 10 mg/kg in the assay on Male ICR mice was determined as 40%.
On the same counts, the results for `Cc1cc(OCCC(C)(C)O)cc(C)c1-c1cccc(COc2ccc3c(c2)OC2(CC2)C3CC(=O)O)c1C` (stereo not drawn) [Example 21, sodium (6-{[4′-(3-hydroxy-3-methylbutoxy)-2,2′,6′-trimethylbiphenyl-3-yl]methoxy}-3H-spiro[1-benzofuran-2,1′-cyclopropan]-3-yl)acetate] are 810 nM and 43%.
Consider `COCCOc1cc(C)c(-c2cccc(COc3ccc4c(c3)OC3(CC3)C4CC(=O)O)c2C)c(C)c1` (stereo not drawn) [Example 21-1], for which the EC50 at human GPR40 was found to be 750 nM. In addition, the inhibition in vivo at 10 mg/kg in the assay on Male ICR mice is 30%.
With `CCOCCOc1cc(C)c(-c2cccc(COc3ccc4c(c3)OC3(CC3)C4CC(=O)O)c2C)c(C)c1` (stereo not drawn) [Example 21-2], the half-maximal effective concentration (EC50) at human GPR40 was 810 nM. In addition, the inhibition in vivo at 10 mg/kg in the assay with Male ICR mice is 23%.
As for `COCCCOc1cc(C)c(-c2cccc(COc3ccc4c(c3)OC3(CC3)C4CC(=O)O)c2C)c(C)c1` (stereo not drawn) [Example 21-3], on human GPR40, the EC50 came to 710 nM. Moreover, the inhibition in vivo at 10 mg/kg in the assay with Male ICR mice was 32%.
On the same counts, the results for `Cc1cc(OC[C@H](O)CO)cc(C)c1-c1cccc(COc2ccc3c(c2)OC2(CC2)C3CC(=O)O)c1C` (stereo partly drawn) [Example 22, sodium {6-[(4′-{[(2R)-2,3-dihydroxypropyl]oxy}-2,2′,6′-trimethylbiphenyl-3-yl)methoxy]-3H-spiro[1-benzofuran-2,1′-cyclopropan]-3-yl}acetate] are 250 nM and 34%.
On the same counts, the results for `Cc1cc(OC[C@@H](O)CO)cc(C)c1-c1cccc(COc2ccc3c(c2)OC2(CC2)C3CC(=O)O)c1C` (stereo partly drawn) [Example 22-1] are 270 nM and 35%.
On to `Cc1cc(OCC[C@@H](O)CO)cc(C)c1-c1cccc(COc2ccc3c(c2)OC2(CC2)C3CC(=O)O)c1C` (stereo partly drawn) [Example 22-2], for which the EC50 at human GPR40 amounted to 430 nM. In addition, in the assay with Male ICR mice, the inhibition in vivo at 10 mg/kg was 34%.
On to `Cc1cc(OCC[C@H](O)CO)cc(C)c1-c1cccc(COc2ccc3c(c2)OC2(CC2)C3CC(=O)O)c1C` (stereo partly drawn) [Example 22-3], for which the half-maximal effective concentration (EC50) at human GPR40 is 470 nM. In addition, in the assay with Male ICR mice, the inhibition in vivo at 10 mg/kg came out at 38%.
Regarding `Cc1nc(OCCO)nc(C)c1-c1cccc(COc2ccc3c(c2)CC2(CC2)C3CC(=O)O)c1C` (stereo not drawn) [Example 23, [5′-({3-[2-(2-hydroxyethoxy)-4,6-dimethylpyrimidin-5-yl]-2-methylbenzyl}oxy)-1′,3′-dihydrospiro[cyclopropan-1,2′-inden]-1′-yl]acetic acid], the EC50 at human GPR40 turned out to be 520 nM. Besides, the inhibition in vivo at 10 mg/kg in the assay on Male ICR mice is 20%.
On to `Cc1cc(OCCO)cc(C)c1-c1cccc(COc2ccc3c(c2)OC2(CC2)C3CC(=O)O)c1C` (stereo not drawn) [Example 25-3a], for which the EC50 on human GPR40 came out at 560 nM.
Still for that read-out and setting: the value for `Cc1cc(OCCO)cc(C)c1-c1cccc(COc2ccc3c(c2)OC2(CC2)C3CC(=O)O)c1C` (stereo not drawn) [Example 25-3b] was 190 nM.
